This is an account of results in US20020137781A1, “Preparation and use of enantiomer-pure 2,4-disubstituted oxazolines” (priority 1999, published 2002).

Several values for one entry are separate records, joined by “and”; a condition that tells them apart may be missing. Equal values may be shown once.

For this assay, the system named is Dermanyssus gallinae. Put plainly: Comparative in vitro effect on Dermanyssus gallinae. The settings on record: for Type of activity: at the EC100 of the same table line; for EC100 (minimum dosage to reach 100% mortality): fed adult female mites, evaluated after 5 days. How it is done: 15 fed adult female mites of the genus Dermanyssus gallinae fixed on a plastic adhesive film are brought into contact with 50 μl of an aqueous suspension or emulsion of the test substance. The test is carried out with concentrations of 32, 10, 3.2, 1.0, 0.32 to 0.1 ppm. After drying, the film is stuck onto a glass disc. This creates a kind of air bubble around each mite, the lower surface of which is formed by the glass disc and the upper surface by a bulging of the adhesive film. This bubble contains sufficient air for the mite to avoid suffocating. After 5 days, the effect of the test substance is evaluated with the aid of a stereo-microscope by assessing the effect on mortality, egg deposition, egg quality, hatching rate, pupation rate, and development of protonymphs according to the following 4 criteria:
1. if 9 to 10 mites are dead, this indicates a lethal effect (M);
3. if 2 or more mites survive and produce eggs, but no larvae hatch from these eggs and no protonymphs develop, this indicates a development-inhibiting effect (H);
4. if 2 or more mites survive and lay the usual number of normal eggs, from which larvae hatch and develop into protonymphs, this indicates no activity.

`Fc1cccc(F)c1C1=NC(c2ccc(-c3ccc(C(F)(F)F)cc3)cc2)CO1` (single isomer, unassigned) [1.2, 2-(2,6-difluoro-phenyl)-4-(4′-trifluoromethylbiphenyl-4-yl)-4,5-dihydro-oxazole]: for the setting “activity of type 1”, the “concentration to reach an activity of type 1” value is listed as “at least 32 ppm”. In addition, the “concentration to reach a considerable efficacy (only activity of type 3)” value (activity of type 3) is “at least 20 ppm”. Under “listed as Enantiomer B”, the Type of activity was 3) and 1; the “EC100 (minimum dosage to reach 100% mortality)” value was 20.0 ppm and 32.0 ppm. Moreover, the “type of effect (points 1-4) at concentrations up to 10 ppm” value (concentrations up to 10 ppm) is listed as 4.

Regarding `Fc1cccc(F)c1C1=NC(c2ccc(-c3ccc(C(F)(F)F)cc3)cc2)CO1` (racemic) [Racemate, 2-(2,6-difluorophenyl)-4-(4′-trifluoromethylbiphenyl-4-yl)-4,5-dihydrooxazole, reference compound], the Type of activity was 1 and the “EC100 (minimum dosage to reach 100% mortality)” value was 0.2 ppm. For the same compound, where the note is “after 5 days”, the “concentration that completely inhibits the development of protonymphs” value is given as no less than 0.02 ppm and the “type of effect (points 1-4)” value is 1.
